Values joined by “and” are separate entries in the source; they are usually repeats but may differ in a detail not shown here. Equal values may be shown once. Positions of bridges follow the written chain, without caps; N, C: chain ends. No end group written: not given here.
System: Schaffer collateral-CA1 synaptic transmission in mouse hippocampal slices after OGD
Test: fEPSP recovery after OGD in hippocampal slices, treatment from the end of OGD or during recovery plateau (Example 8)
Format: cell-based, C57Bl6/J mice
Settings: for averaged normalized f-EPSP slope: NX218 250 μg/mL from the end of OGD, n=10 slices
Experimental: Two extra slices were also be recorded to evaluate a possible curative capacity of NX218 against hypoxia.
Animals: see Example 7. In total, 10 mice were used in this study. An additional mouse was used to obtain two extra slices for preliminary recordings (“test slices)”.
Mice brain slice preparation: see Example 7
Conditions of Example 7 are used, except:
Measurements of evoked field excitatory postsynaptic potential (fEPSP) recovery after OGD were continued for 120 min from TO (OGD initiation). Two “test slices” were also done according to the experimental design described above.
Oxygen-glucose deprivation: see Example 7. In this study, the mean OGD duration was 10.6±1.0 min. Data processing and statistical analysis: see Example 7.

## W-S-G-W-S-S-C-S-R-S-C-G [NX218] (WSGWSSCSRSCG; disulfide 7-11 (inferred))
0-30 min after start of OGD, vehicle 28.497
  averaged normalized f-EPSP slope: 25.758 % of baseline
30-60 min after start of OGD, vehicle 53.456
  averaged normalized f-EPSP slope: 52.556 % of baseline
60-90 min after start of OGD, vehicle 68.774
  averaged normalized f-EPSP slope: 74.616 % of baseline
90-120 min after start of OGD, vehicle 77.110
  averaged normalized f-EPSP slope: 88.0±1.9 % of baseline and 88.046 % of baseline
NX218 250 μg/mL applied during recovery plateau, T=60 min or T=70 min after OGD initiation, preliminary, n=1 per timepoint
  shape of the f-EPSP recovery phase following OGD (curative effect): rising further toward baseline
Last 10 min (of 120 min) after start of OGD, vehicle 79.319
  averaged normalized f-EPSP slope: 90.3±2.7 % of baseline and 90.340 % of baseline

Source: patent publication US20250177481A1, “SCO-spondin-derived polypeptides for enhancing synaptic transmission” (AXOLTIS PHARMA, priority 2021, published 2025)
